Data from US20230338374A1, “MDM2 INHIBITORS FOR USE IN THE TREATMENT OR PREVENTION OF HEMATOLOGIC NEOPLASM RELAPSE AFTER HEMATOPOIETIC CELL TRANSPLANTATION” (Novartis AG, priority 2020, published 2023).
Where two headings read alike, the source gives them in different places.

Columns and labels:
[1] = cited from earlier work
[2] = system: p53-knockdown OCI-AML3 cells; test: Expression in p53-knockdown cells (flow cytometry, western blot); assay type: cell-based, human; conditions: FIG. 9a
Method: MFI of control-treated cells was set as 1.0. P-values were calculated using the two-sided Student's unpaired t-test.
MFI of control-treated cells was set as 1.0. P-values were calculated using two-sided Student's unpaired t-test.
(a) Representative western blot (left panel) showing the expression of MDM2, p53 and loading control (GAPDH) in WT OCI-AML3 cells or p53 knockdown OCI-AML3 cells exposed to […] doxorubicin for 4 hours, when indicated. Right panel: Quantification of the relative intensity of the protein bands for each group.
P53 knockdown cells have been previously described (24). The p53 shRNA (p53.1224) had been cloned into a retroviral vector that co-expressed red fluorescent protein and which could be induced by doxycycline (24). […]
For excluding dead cells, the LIVE/DEAD Fixable Dead Cell Stain kit (Molecular Probes, USA) or LIVE/DEAD™ Fixable Aqua Dead Cell Stain Kit (Thermo Scientific) along with True Stain FcX (BioLegend) were used, according to the manufacturer's instructions. For all flurochrome-conjugated antibodies, optimal concentrations were determined using titration experiments. […] Data were acquired on the BD LSR Fortessa flow cytometer (BD Biosciences, Germany) and analyzed using Flow Jo software version 10.4 (Tree Star, USA). […]

[3] = single oral doses; GI toxicities the most common AEs; cited from earlier work
donor CD8^+ T-cells = test: T cell phenotyping in the GvL mouse model (WEHI-3B), spleen day 12; assay type: in vivo; conditions: allo-transplanted leukemia bearing BALB/c mice, vs vehicle
From the text: FIG. 3: MDM2-inhibition promotes cytotoxicity and longevity of donor T cells • (a-h) Scatter plots and representative histograms show expression of Perforin (a, b), CD107a (c, d), IFN-γ (e, f), TNF-α (g, h) of CD8^+ T-cells isolated from spleen on day 12 following allo-HCT of WEHI-3B leukemia bearing BALB/c mice transplanted with C57BL/6 BM plus allogeneic C57BL/6 T-cells and treated with either vehicle or MDM2-inhibitor RG-7112. Mean value±SEM from n=14-19 biologically independent animals per group from 2 experiments are shown and p-values were calculated using two-sided Mann-Whitney U test. (m) Quantification of donor-derived (H-2kb+) TCRb+CD8+CD27+ TIM3+ T cells from allo-transplanted leukemia bearing BALB/c mice treated with RG-7112 or vehicle as indicated. (a) A representative flow cytometry histogram depicts the mean fluorescence intensity (MFI) and scatter plot showing fold-change of MFI for CD69 of all living donor (H-2kb^+) CD8^+ T cells from leukemia bearing BALB/c mice undergoing allo-HCT and being treated with vehicle. […] P-values were calculated using the two-sided Mann-Whitney U test. […] P-values were calculated using the two-sided Mann-Whitney U test. No difference in CD8 T-cells/all CD3 T-cells was detected. […] Mean value±SEM from n=14-19 biologically independent animals per group from 2 experiments are shown and p-value was calculated using two-sided Mann-Whitney U test. […]

[4] = oral; no dose-limiting toxicities; cited from earlier work
[5] = cited from earlier work; remark: listed apart in the source
[6] = combined with pimasertib, cited from earlier work
advanced solid tumor = conditions: cited from earlier work
OCI-AML3 cells = test: Killing assay with recombinant hTRAIL, viability by flow cytometry; assay type: cell-based, human; conditions: p53^−/− AML cells, FIG. 9e
Method: After 48 hours limiting concentrations of hTRAIL (TNFSF 10) were added for 24 hours, where indicated. The viability of the AML cells was measured by flow cytometry. […] P-values were calculated using two-sided Student's unpaired t-test.
Where indicated wildtype OCI-AML3 (WT) or p53 knockout (p53^−/−) OCI-AML3 were incubated with 1 μM MDM2-inhibitor RG7112. After 48 hours limiting concentrations of hTRAIL (TNFSF 10) were added for 24 hours where indicated. Viability of cells was measured by flow cytometry. […] P-values were calculated using two-sided Student's unpaired t-test.
For Killing assays using recombinant hTRAIL ((TNFSF 10, Apo-2L, CD253;) […]®; ENZO), the ligand was added for 24 h 0.5 μg/ml (1:1000) for optimal killing and 0.25 μg/ml (1:2000) for limiting killing conditions to OCI-AML3 target cells. Viability of cells was assessed by LIVE/DEAD™ Fixable Aqua Dead Cell Stain Kit (Thermo Scientific). Data were acquired on the BD LSR Fortessa flow cytometer (BD Biosciences) and analyzed using Flow Jo software version 10.4 (Tree Star).

## COc1ncc(-c2nc3c(n2C(C)C)[C@H](c2ccc(Cl)cc2)N(c2cc(Cl)cn(C)c2=O)C3=O)c(OC)n1 [HDM201]
[1]; Reg 1
  grade 3/4 adverse event anemia: 8%
  grade 3/4 adverse event neutropenia: 26%
  grade 3/4 adverse event thrombocytopenia: 24%
[1]; Reg 2
  grade 3/4 adverse event anemia: 17%
  grade 3/4 adverse event neutropenia: 14%
  grade 3/4 adverse event thrombocytopenia: 28%

## COc1cccc2c1C(=O)c1c(O)c3c(c(O)c1C2=O)C[C@@](O)(C(=O)CO)C[C@@H]3O[C@H]1C[C@H](N)[C@H](O)[C@H](C)O1 [doxorubicin]
[2]
  induction of p53: decreased

## CCOc1cc(C(C)(C)C)ccc1C1=N[C@@](C)(c2ccc(Cl)cc2)[C@@](C)(c2ccc(Cl)cc2)N1C(=O)N1CCN(CCCS(C)(=O)=O)CC1 [RG7112]
[3]
  tolerability: generally well tolerated
Donor CD8^+ T-cells
  CD8 T-cells/all CD3 T-cells: No difference

## CCN1[C@@H](C(=O)NC23CCC(C(=O)O)(CC2)CC3)[C@H](c2cccc(Cl)c2F)[C@]2(C(=O)Nc3cc(Cl)ccc32)C12CCCCC2 [APG-115]
[4]
  optimum dose: 100 mg

## CC(C)[C@@H](CS(=O)(=O)C(C)C)N1C(=O)[C@@](C)(CC(=O)O)C[C@H](c2cccc(Cl)c2)[C@H]1c1ccc(Cl)cc1 [AMG 232]
[5]; dose escalation discontinued because of gastrointestinal AEs
  MTD: not reached
[5]; in vivo
  treatment-related AE decreased appetite: 25%
  treatment-related AE diarrhea: 56%
  treatment-related AE nausea: 58%
  treatment-related AE vomiting: 33%

## CC(C)(C)C[C@@H]1N[C@@H](C(=O)N[C@H]2CC[C@H](O)CC2)[C@H](c2cccc(Cl)c2F)[C@]12C(=O)Nc1cc(Cl)ccc12 [SAR405838]
[6]; 26 patients
  adverse event blood creatine phosphokinase: 77%
  adverse event diarrhoea: 81%
  adverse event nausea: 62%
  adverse event vomiting: 62%
[6]
  safety profile of the combination: consistent with the safety profiles of both the drugs
Advanced solid tumor; 74 patients treated
  3-month progression free rate: 32%
  best response, patients: 56%
Advanced solid tumor; patients with advanced solid tumors
  safety profile: acceptable safety profile

B1: TRAIL: recombinant hTRAIL (TNFSF 10, Apo-2L, CD253) (protein)
chain: TSEETISTVQEKQQNISPLVRERGPQRVAAHITGTRGRSNTLSSPNSKNEKALGRKINSWESSRSGHSFLSNLHLRNGELVIHEKGFYYIYSQTYFRFQEEIKENTKNDKQMVQYIYKYTSYPDPILLMKSARNSCWSKDAEYGLYSIYQGGIFELKENDRIFVSVTNEHLIDMDHEASFFGAFLVG
OCI-AML3 cells
  apoptosis induced: less apoptosis
